ChEMBL document CHEMBL1201862, “PubChem BioAssay data set” (2004)
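Method: 48-hour compound exposure of cells in 96-well plates, five concentrations, linear interpolation of endpoints. Abbreviation: GI50, concentration required for 50% inhibition of growth.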 Activity calls are given as the source filed them. No stated cut-off is given here; in the data, active = GI50 up to about 1.1 µM and inactive = higher.

Key:
Assay in all cases: growth of human tumour cells (NCI), 48 h
A498 = test system: A498
ACHN = test system: ACHN
EKVX = test system: EKVX
HCT-116 = test system: HCT-116
HL-60 = test system: HL-60
K562 = test system: K562
Malme-3M = test system: Malme-3M
NCI-H23 = test system: NCI-H23
NCI-H522 = test system: NCI-H522
NCI/ADR-RES = test system: NCI/ADR-RES
OVCAR-4 = test system: OVCAR-4
OVCAR-5 = test system: OVCAR-5
RPMI-8226 = test system: RPMI-8226
SF-539 = test system: SF-539
SK-MEL-28 = test system: SK-MEL-28
SK-MEL-5 = test system: SK-MEL-5
TK-10 = test system: TK-10
U-251 = test system: U-251
UO-31 = test system: UO-31
SR = test system: SR

Compound	GI50 (A498)	GI50 (ACHN)	GI50 (EKVX)	GI50 (HCT-116)	GI50 (HL-60)	GI50 (K562)	GI50 (Malme-3M)	GI50 (NCI-H23)	GI50 (NCI-H522)	GI50 (NCI/ADR-RES)	GI50 (OVCAR-4)	GI50 (OVCAR-5)	GI50 (RPMI-8226)	GI50 (SF-539)	GI50 (SK-MEL-28)	GI50 (SK-MEL-5)	GI50 (TK-10)	GI50 (U-251)	GI50 (UO-31)	GI50 (SR)
FC(F)(F)c1nc2cc(SSc3cc4nc(C(F)(F)F)[nH]c4cc3Cl)c(Cl)cc2[nH]1	> 100 µM (inactive)	> 100 µM (inactive)	> 100 µM (inactive)	> 100 µM (inactive)	> 100 µM (inactive)	> 100 µM (inactive)	82.8 µM (inactive)	> 100 µM (inactive)	66.4 µM (inactive)	> 100 µM (inactive)	92.5 µM (inactive)	> 100 µM (inactive)	> 100 µM (inactive)	> 100 µM (inactive)	> 100 µM (inactive)	65.3 µM (inactive)	> 100 µM (inactive)	> 100 µM (inactive)	–	–
Oc1cc(-c2ccc(Cl)cc2)cn2c1nc1ccccc12	> 100 µM (inactive)	–	> 100 µM (inactive)	> 100 µM (inactive)	2.66 µM (inactive)	2.3 µM (inactive)	> 100 µM (inactive)	> 100 µM (inactive)	2.09 µM (inactive)	> 100 µM (inactive)	> 100 µM (inactive)	–	–	> 100 µM (inactive)	> 100 µM (inactive)	–	> 100 µM (inactive)	6.59 µM (inactive)	> 100 µM (inactive)	–
CNC(=S)N/N=C(\C)c1cc(OC)c(OC)cc1O	> 100 µM (inactive)	> 100 µM (inactive)	> 100 µM (inactive)	> 100 µM (inactive)	0.0556 µM (active)	7.29 µM (inactive)	> 100 µM (inactive)	–	–	> 100 µM (inactive)	–	> 100 µM (inactive)	> 100 µM (inactive)	> 100 µM (inactive)	> 100 µM (inactive)	> 100 µM (inactive)	> 100 µM (inactive)	> 100 µM (inactive)	> 100 µM (inactive)	> 100 µM (inactive)
COc1ccc(-c2nc(SCC(=O)N/N=C/c3ccc([N+](=O)[O-])cc3)[nH]c2-c2ccc(OC)cc2)cc1	14.3 µM (inactive)	20.1 µM (inactive)	16.4 µM (inactive)	8.49 µM (inactive)	4.07 µM (inactive)	7.45 µM (inactive)	17.5 µM (inactive)	21.9 µM (inactive)	6.95 µM (inactive)	19.1 µM (inactive)	39.4 µM (inactive)	16.2 µM (inactive)	8.91 µM (inactive)	11.9 µM (inactive)	21.7 µM (inactive)	6.27 µM (inactive)	22.3 µM (inactive)	11.7 µM (inactive)	18.8 µM (inactive)	–
CCOC(=O)CCSS(=O)(=O)c1ccccc1	> 100 µM (inactive)	> 100 µM (inactive)	> 100 µM (inactive)	–	35.8 µM (inactive)	–	–	> 100 µM (inactive)	–	> 100 µM (inactive)	> 100 µM (inactive)	92.9 µM (inactive)	35 µM (inactive)	–	> 100 µM (inactive)	62.2 µM (inactive)	> 100 µM (inactive)	> 100 µM (inactive)	> 10 µM (inactive)	–
CCOC(=O)c1c(CN2CCOCC2)n(Cc2ccccc2)c2c1cc(O)c1nc(C)c(C)nc12	22 µM (inactive)	28.6 µM (inactive)	> 100 µM (inactive)	38.3 µM (inactive)	> 100 µM (inactive)	84.9 µM (inactive)	45.8 µM (inactive)	35.5 µM (inactive)	–	35.5 µM (inactive)	47.8 µM (inactive)	> 100 µM (inactive)	30.3 µM (inactive)	30.8 µM (inactive)	> 100 µM (inactive)	22.6 µM (inactive)	30.3 µM (inactive)	27.4 µM (inactive)	36.1 µM (inactive)	44 µM (inactive)
Cc1ccc(Nc2n[nH]c(=S)s2)cc1	> 100 µM (inactive)	> 100 µM (inactive)	> 100 µM (inactive)	> 100 µM (inactive)	> 100 µM (inactive)	> 100 µM (inactive)	> 100 µM (inactive)	> 100 µM (inactive)	–	> 100 µM (inactive)	–	> 100 µM (inactive)	> 100 µM (inactive)	> 100 µM (inactive)	> 100 µM (inactive)	99.1 µM (inactive)	> 100 µM (inactive)	> 100 µM (inactive)	87.9 µM (inactive)	> 100 µM (inactive)
CN(C)C(=S)C(Cl)(c1ccccc1)c1ccccc1	> 100 µM (inactive)	90.2 µM (inactive)	27.8 µM (inactive)	38.4 µM (inactive)	22.9 µM (inactive)	36.2 µM (inactive)	> 100 µM (inactive)	53.3 µM (inactive)	33.3 µM (inactive)	89.5 µM (inactive)	35.4 µM (inactive)	> 100 µM (inactive)	–	36.6 µM (inactive)	> 100 µM (inactive)	36.4 µM (inactive)	> 100 µM (inactive)	36.1 µM (inactive)	84.9 µM (inactive)	–
CC(C)CCCC(C)[C@H]1CCC2[C@@H]3CCC4Cc5nc6c(nc5C[C@]4(C)C3CC[C@@]21C)CC1CC[C@@H]2C(CC[C@@]3(C)C2CC[C@@H]3C(C)CCCC(C)C)[C@@]1(C)C6 (stereo partly drawn)	> 100 µM (inactive)	> 100 µM (inactive)	> 100 µM (inactive)	> 100 µM (inactive)	> 100 µM (inactive)	> 100 µM (inactive)	> 100 µM (inactive)	> 100 µM (inactive)	–	> 100 µM (inactive)	> 100 µM (inactive)	> 100 µM (inactive)	> 100 µM (inactive)	> 100 µM (inactive)	> 100 µM (inactive)	> 100 µM (inactive)	> 100 µM (inactive)	> 100 µM (inactive)	> 100 µM (inactive)	> 100 µM (inactive)
C=C1CC2(CCCC3(CC(=C)C(=O)O3)C2(C)C)OC1=O (stereo not drawn)	21.4 µM (inactive)	1.07 µM (active)	4.02 µM (inactive)	1.44 µM (inactive)	2.4 µM (inactive)	3.38 µM (inactive)	1.64 µM (inactive)	2.89 µM (inactive)	1.46 µM (inactive)	13.2 µM (inactive)	4.85 µM (inactive)	1.58 µM (inactive)	0.47 µM (active)	3.26 µM (inactive)	2.05 µM (inactive)	14.8 µM (inactive)	1.18 µM (inactive)	1.42 µM (inactive)	3.06 µM (inactive)	–
CCCC/C=C1\CCC(CN2CCCCC2)C1=O (stereo not drawn)	25.7 µM (inactive)	29.3 µM (inactive)	26.1 µM (inactive)	17.8 µM (inactive)	7.6 µM (inactive)	7.82 µM (inactive)	8.55 µM (inactive)	28.1 µM (inactive)	–	> 100 µM (inactive)	30.5 µM (inactive)	34.7 µM (inactive)	–	19 µM (inactive)	21.3 µM (inactive)	26.6 µM (inactive)	12.4 µM (inactive)	29.2 µM (inactive)	32.8 µM (inactive)	–
CCC1CCN=C(Cn2cc(C)c(=O)[nH]c2=O)N1 (stereo not drawn)	> 100 µM (inactive)	> 100 µM (inactive)	> 100 µM (inactive)	> 100 µM (inactive)	–	–	> 100 µM (inactive)	> 100 µM (inactive)	> 100 µM (inactive)	> 100 µM (inactive)	–	> 100 µM (inactive)	–	–	> 100 µM (inactive)	> 100 µM (inactive)	> 100 µM (inactive)	> 100 µM (inactive)	> 100 µM (inactive)	–
CCCCc1ccc(-n2sc3ncc([N+](=O)[O-])cc3c2=O)cc1	–	14.8 µM (inactive)	13.6 µM (inactive)	8.57 µM (inactive)	10.4 µM (inactive)	–	7.8 µM (inactive)	11.2 µM (inactive)	1.2 µM (inactive)	11.5 µM (inactive)	6.58 µM (inactive)	13.4 µM (inactive)	9.12 µM (inactive)	15.3 µM (inactive)	14.1 µM (inactive)	14.6 µM (inactive)	21.1 µM (inactive)	12.6 µM (inactive)	12.5 µM (inactive)	16 µM (inactive)
Oc1ccc(-c2nc(-c3ccc4ccccc4n3)c(-c3ccc(F)cc3)[nH]2)cc1	–	12.3 µM (inactive)	17.8 µM (inactive)	12.9 µM (inactive)	5.94 µM (inactive)	14.5 µM (inactive)	13.7 µM (inactive)	12.5 µM (inactive)	–	4.74 µM (inactive)	11.2 µM (inactive)	15.9 µM (inactive)	5.62 µM (inactive)	–	17.4 µM (inactive)	2.12 µM (inactive)	13.2 µM (inactive)	10.6 µM (inactive)	11.6 µM (inactive)	6.25 µM (inactive)
CCN(CC)C(=O)N1CN(c2ccccc2)C2(CCN(CCCC3(c4ccc(F)cc4)OCCO3)CC2)C1=O	–	> 10 µM (inactive)	25.9 µM (inactive)	11.7 µM (inactive)	12.7 µM (inactive)	–	19.1 µM (inactive)	16.1 µM (inactive)	13.7 µM (inactive)	23.6 µM (inactive)	22.4 µM (inactive)	> 10 µM (inactive)	12.9 µM (inactive)	16.6 µM (inactive)	13.8 µM (inactive)	12.9 µM (inactive)	17.5 µM (inactive)	16.6 µM (inactive)	18.4 µM (inactive)	11.6 µM (inactive)
N#Cc1nc(-c2ccco2)oc1N	–	> 10 µM (inactive)	> 10 µM (inactive)	> 10 µM (inactive)	> 10 µM (inactive)	> 10 µM (inactive)	> 10 µM (inactive)	> 10 µM (inactive)	> 10 µM (inactive)	> 10 µM (inactive)	> 10 µM (inactive)	> 10 µM (inactive)	> 10 µM (inactive)	> 10 µM (inactive)	> 10 µM (inactive)	> 10 µM (inactive)	> 10 µM (inactive)	–	> 10 µM (inactive)	> 10 µM (inactive)
